Data reported in the supplement of paper PMC13207355.
Structures can show the parent of a compound that is named as a salt.

How the values were obtained:
Conditions in all cases: exposure time: 72 h
E21 [1] = patient-derived glioblastoma stem cells of mesenchymal subtype; assay: surviving fraction (nuclei count normalised to DMSO); higher = more cells surviving (less toxic)
FT3469 [2] = normal neural stem cell line; assay: as above
E57 [3] = patient-derived glioblastoma stem cells of mesenchymal subtype; assay: as above
E13 [4] = patient-derived glioblastoma stem cells of classical subtype; assay: as above
E31 [5] = patient-derived glioblastoma stem cells of proneural subtype; assay: as above
E34 [6] = patient-derived glioblastoma stem cells of proneural subtype; assay: as above
E28 [7] = patient-derived glioblastoma stem cells of classical subtype; assay: as above
E21 [8] = assay: phenotypic distance (Euclidean, principal components) from DMSO controls (arbitrary units); higher = stronger morphological change
FT3469 [9] = assay: as above
E57 [10] = assay: as above
E13 [11] = assay: as above
E31 [12] = assay: as above
E34 [13] = assay: as above
E28 [14] = assay: as above
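Throughout, for phenotypic distance (Euclidean, principal components) from DMSO controls: cell Painting imaging in 384-well plates, CellProfiler features reduced to at least 20 principal components, Euclidean distance versus same-plate DMSO vehicle wells (0.1% v/v), median over six images per well.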
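Throughout, for surviving fraction (nuclei count normalised to DMSO): nuclei counted by high-content imaging of Hoechst-stained cells in laminin-coated 384-well plates, relative to 0.1% DMSO vehicle wells, with staurosporine as cell-death control.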

CC(=O)O[C@H]1C[C@H](O[C@H]2[C@@H](O)C[C@H](O[C@H]3[C@@H](O)C[C@H](O[C@H]4CC[C@@]5(C)[C@H](CC[C@@H]6[C@@H]5C[C@@H](O)[C@]5(C)[C@@H](C7=CC(=O)OC7)CC[C@]65O)C4)O[C@@H]3C)O[C@@H]2C)O[C@H](C)[C@H]1O[C@@H]1O[C@H](CO)[C@@H](O)[C@H](O)[C@H]1O [Lanatoside C]
Conditions | phenotypic distance | surviving fraction
E13 [4], 4.1 nM | – | 0.646
E13 [4], 12.3 nM | – | 0.373
E13 [4], 37 nM | – | 0.344
E13 [4], 111.1 nM | – | 0.349
E13 [4], 333.3 nM | – | 0.268
E13 [4], 1000 nM | – | 0.273
E13 [4], 3000 nM | – | 0.245
E13 [11], 4.1 nM | 3.23 | –
E13 [11], 12.3 nM | 4.4 | –
E13 [11], 37 nM | 4.8 | –
E13 [11], 111.1 nM | 5.94 | –
E13 [11], 333.3 nM | 6.29 | –
E13 [11], 1000 nM | 6.53 | –
E13 [11], 3000 nM | 6.35 | –
E21 [1], 4.1 nM | – | 0.829
E21 [1], 12.3 nM | – | 0.52
E21 [1], 37 nM | – | 0.513
E21 [1], 111.1 nM | – | 0.347
E21 [1], 333.3 nM | – | 0.287
E21 [1], 1000 nM | – | 0.214
E21 [1], 3000 nM | – | 0.241
E21 [8], 4.1 nM | 2.87 | –
E21 [8], 12.3 nM | 3.93 | –
E21 [8], 37 nM | 4.41 | –
E21 [8], 111.1 nM | 6.06 | –
E21 [8], 333.3 nM | 7.08 | –
E21 [8], 1000 nM | 6.66 | –
E21 [8], 3000 nM | 6.83 | –
E28 [7], 4.1 nM | – | 0.864
E28 [7], 12.3 nM | – | 0.807
E28 [7], 37 nM | – | 0.625
E28 [7], 111.1 nM | – | 0.57
E28 [7], 333.3 nM | – | 0.505
E28 [7], 1000 nM | – | 0.394
E28 [7], 3000 nM | – | 0.449
E28 [14], 4.1 nM | 1.18 | –
E28 [14], 12.3 nM | 1.82 | –
E28 [14], 37 nM | 2.35 | –
E28 [14], 111.1 nM | 3.35 | –
E28 [14], 333.3 nM | 3.21 | –
E28 [14], 1000 nM | 3.17 | –
E28 [14], 3000 nM | 3.73 | –
E31 [5], 4.1 nM | – | 1.26
E31 [5], 12.3 nM | – | 0.646
E31 [5], 37 nM | – | 0.564
E31 [5], 111.1 nM | – | 0.398
E31 [5], 333.3 nM | – | 0.413
E31 [5], 1000 nM | – | 0.35
E31 [5], 3000 nM | – | 0.326
E31 [12], 4.1 nM | 2.01 | –
E31 [12], 12.3 nM | 3.33 | –
E31 [12], 37 nM | 4.72 | –
E31 [12], 111.1 nM | 5.61 | –
E31 [12], 333.3 nM | 4.79 | –
E31 [12], 1000 nM | 4.62 | –
E31 [12], 3000 nM | 5.53 | –
E34 [6], 4.1 nM | – | 0.887
E34 [6], 12.3 nM | – | 0.769
E34 [6], 37 nM | – | 0.597
E34 [6], 111.1 nM | – | 0.56
E34 [6], 333.3 nM | – | 0.543
E34 [6], 1000 nM | – | 0.397
E34 [6], 3000 nM | – | 0.276
E34 [13], 4.1 nM | 1.29 | –
E34 [13], 12.3 nM | 2.98 | –
E34 [13], 37 nM | 3.49 | –
E34 [13], 111.1 nM | 4.28 | –
E34 [13], 333.3 nM | 3.87 | –
E34 [13], 1000 nM | 3.82 | –
E34 [13], 3000 nM | 5.11 | –
E57 [3], 4.1 nM | – | 1.03
E57 [3], 12.3 nM | – | 0.615
E57 [3], 37 nM | – | 0.371
E57 [3], 111.1 nM | – | 0.238
E57 [3], 333.3 nM | – | 0.217
E57 [3], 1000 nM | – | 0.177
E57 [3], 3000 nM | – | 0.152
E57 [10], 4.1 nM | 2.85 | –
E57 [10], 12.3 nM | 4.99 | –
E57 [10], 37 nM | 6.18 | –
E57 [10], 111.1 nM | 7.2 | –
E57 [10], 333.3 nM | 6.8 | –
E57 [10], 1000 nM | 6.87 | –
E57 [10], 3000 nM | 7.11 | –
FT3469 [2], 4.1 nM | – | 0.642
FT3469 [2], 12.3 nM | – | 0.545
FT3469 [2], 37 nM | – | 0.622
FT3469 [2], 111.1 nM | – | 0.554
FT3469 [2], 333.3 nM | – | 0.66
FT3469 [2], 1000 nM | – | 0.627
FT3469 [2], 3000 nM | – | 0.592
FT3469 [9], 4.1 nM | 3.36 | –
FT3469 [9], 12.3 nM | 3.52 | –
FT3469 [9], 37 nM | 3.89 | –
FT3469 [9], 111.1 nM | 3.72 | –
FT3469 [9], 333.3 nM | 3.47 | –
FT3469 [9], 1000 nM | 3.7 | –
FT3469 [9], 3000 nM | 3.74 | –

CC(NCCC(c1ccccc1)c1ccccc1)c1ccccc1 (stereo unspecified) [Fendiline hydrochloride]
Conditions | phenotypic distance | surviving fraction
E13 [4], 4.1 nM | – | 0.853
E13 [4], 12.3 nM | – | 0.993
E13 [4], 37 nM | – | 0.984
E13 [4], 111.1 nM | – | 0.898
E13 [4], 333.3 nM | – | 1.03
E13 [4], 1000 nM | – | 1.1
E13 [4], 3000 nM | – | 0.976
E13 [11], 4.1 nM | 1.49 | –
E13 [11], 12.3 nM | 0.566 | –
E13 [11], 37 nM | 0.415 | –
E13 [11], 111.1 nM | 1.15 | –
E13 [11], 333.3 nM | 0.412 | –
E13 [11], 1000 nM | 0.615 | –
E13 [11], 3000 nM | 1.21 | –
E21 [1], 4.1 nM | – | 1.03
E21 [1], 12.3 nM | – | 0.876
E21 [1], 37 nM | – | 0.962
E21 [1], 111.1 nM | – | 0.95
E21 [1], 333.3 nM | – | 1.01
E21 [1], 1000 nM | – | 0.962
E21 [1], 3000 nM | – | 0.961
E21 [8], 4.1 nM | 0.402 | –
E21 [8], 12.3 nM | 0.709 | –
E21 [8], 37 nM | 0.475 | –
E21 [8], 111.1 nM | 0.445 | –
E21 [8], 333.3 nM | 0.634 | –
E21 [8], 1000 nM | 0.668 | –
E21 [8], 3000 nM | 0.648 | –
E28 [7], 4.1 nM | – | 0.897
E28 [7], 12.3 nM | – | 1.08
E28 [7], 37 nM | – | 0.956
E28 [7], 111.1 nM | – | 1.12
E28 [7], 333.3 nM | – | 0.967
E28 [7], 1000 nM | – | 1.08
E28 [7], 3000 nM | – | 1.04
E28 [14], 4.1 nM | 0.507 | –
E28 [14], 12.3 nM | 0.605 | –
E28 [14], 37 nM | 0.415 | –
E28 [14], 111.1 nM | 0.773 | –
E28 [14], 333.3 nM | 0.762 | –
E28 [14], 1000 nM | 0.645 | –
E28 [14], 3000 nM | 0.861 | –
E31 [5], 4.1 nM | – | 1.09
E31 [5], 12.3 nM | – | 0.954
E31 [5], 37 nM | – | 0.955
E31 [5], 111.1 nM | – | 1.02
E31 [5], 333.3 nM | – | 0.968
E31 [5], 1000 nM | – | 0.988
E31 [5], 3000 nM | – | 1.15
E31 [12], 4.1 nM | 0.374 | –
E31 [12], 12.3 nM | 0.903 | –
E31 [12], 37 nM | 0.419 | –
E31 [12], 111.1 nM | 0.715 | –
E31 [12], 333.3 nM | 0.436 | –
E31 [12], 1000 nM | 0.581 | –
E31 [12], 3000 nM | 1.24 | –
E34 [6], 4.1 nM | – | 1.02
E34 [6], 12.3 nM | – | 0.952
E34 [6], 37 nM | – | 0.969
E34 [6], 111.1 nM | – | 0.959
E34 [6], 333.3 nM | – | 1.07
E34 [6], 1000 nM | – | 0.954
E34 [6], 3000 nM | – | 1.09
E34 [13], 4.1 nM | 0.542 | –
E34 [13], 12.3 nM | 0.85 | –
E34 [13], 37 nM | 0.586 | –
E34 [13], 111.1 nM | 0.878 | –
E34 [13], 333.3 nM | 0.354 | –
E34 [13], 1000 nM | 0.817 | –
E34 [13], 3000 nM | 0.823 | –
E57 [3], 4.1 nM | – | 0.982
E57 [3], 12.3 nM | – | 1.03
E57 [3], 37 nM | – | 1.01
E57 [3], 111.1 nM | – | 1.08
E57 [3], 333.3 nM | – | 1.07
E57 [3], 1000 nM | – | 1.04
E57 [3], 3000 nM | – | 1.09
E57 [10], 4.1 nM | 0.595 | –
E57 [10], 12.3 nM | 0.626 | –
E57 [10], 37 nM | 0.661 | –
E57 [10], 111.1 nM | 0.669 | –
E57 [10], 333.3 nM | 0.423 | –
E57 [10], 1000 nM | 0.376 | –
E57 [10], 3000 nM | 0.679 | –
FT3469 [2], 4.1 nM | – | 0.944
FT3469 [2], 12.3 nM | – | 0.918
FT3469 [2], 37 nM | – | 0.939
FT3469 [2], 111.1 nM | – | 1.11
FT3469 [2], 333.3 nM | – | 0.92
FT3469 [2], 1000 nM | – | 1.28
FT3469 [2], 3000 nM | – | 0.989
FT3469 [9], 4.1 nM | 0.761 | –
FT3469 [9], 12.3 nM | 0.264 | –
FT3469 [9], 37 nM | 0.282 | –
FT3469 [9], 111.1 nM | 0.794 | –
FT3469 [9], 333.3 nM | 0.524 | –
FT3469 [9], 1000 nM | 1.26 | –
FT3469 [9], 3000 nM | 0.835 | –
